The values below come from US7071168B2, “Anti-cancer compounds and methods related thereto” (The Regents of the University of Colorado, priority 1998, dated 2006).

For one assay, the system named is SCLC strain SHP-77. Briefly: Colorimetric tetrazolium (MTT) assay for cell survival, SCLC strain SHP-77. The format is cell-based, human. Conditions: SCLC strain SHP-77 in vitro. How it is done: (§1) In general, Anti-bradykinin activity was determined by the classical guinea pig ileum assay and on Chinese hamster ovary (CHO) cells expressing cloned human bradykinin B2 receptors. Anti-tumor activity was determined on cultured human cancer cell lines using the standard tetrazolium (MTT) assay.
Cell growth and survival were measured by a rapid colorimetric assay based on the tetrazolium salt MTT (3-(4,5-dimethylthiazol-2-yl)-2,5-diphenyl tetrazolium bromide) (Mosmann, J Immunol. Methods 65: 55–63, 1983, with minor modifications). Briefly, 1,000 normal lung fibroblasts or normal epithelial BEAS-2B cells, 1,000 or 5,000 viable non-SCLC cells or 10,000 viable SCLC cells were plated in 100 μL of growth medium in 96-well flat-bottomed microtiter plates. Cells were incubated overnight to allow recovery. Compounds to be tested were added to the cells in triplicate in a range of concentrations and the cells were incubated at 37° C., 5% CO2, with 100% humidity. Control cells were treated in the same way without antagonists. […] Plates were incubated for 4 days, allowing sufficient time for cell replication and compound-induced cell death to occur. On day 5, 25 μL of a 2 mg/mL solution of MTT (Sigma) dissolved in RMPI-1640was added to each well. The plate was incubated for 4 h at 37° C. The supernate was removed and the blue formazan complex was dissolved by adding 100 μL of 0.02 N HCl in 75% isopropanol to all wells. Absorbance was immediately determined using a scanning multiwell plate reader. B9870 caused 50% cell death at a concentration of 0.15 μM under these conditions.
As for `CC1(C)CC(NC(=O)[C@@H](NC(=N)CCCCCCCCCCCCC(=N)N[C@H](C(=O)NC2CC(C)(C)NC(C)(C)C2)C2Cc3ccccc3C2)C2Cc3ccccc3C2)CC(C)(C)N1` [M280], the “MTT: ED50 for killing of SCLC strain SHP-77 in vitro” value (“MTT: ED50 for killing” for short) was determined as 6 µM.

With `Cc1cc(NC(=O)C(Cc2ccc3ccccc3c2)NC(=O)C=Cc2c(F)c(F)c(F)c(F)c2F)c2ccccc2n1` (stereo not drawn) [M314], the “MTT: ED50 for killing” value is 25 µM.

For `CC1(C)CC(NC(=O)C(Cc2ccc(OCc3c(Cl)cccc3Cl)cc2)NC(=O)CN(CCN(CC(=O)NC(Cc2ccc(OCc3c(Cl)cccc3Cl)cc2)C(=O)NC2CC(C)(C)NC(C)(C)C2)CC(=O)NC(Cc2ccc(OCc3c(Cl)cccc3Cl)cc2)C(=O)NC2CC(C)(C)NC(C)(C)C2)CC(=O)NC(Cc2ccc(OCc3c(Cl)cccc3Cl)cc2)C(=O)NC2CC(C)(C)NC(C)(C)C2)CC(C)(C)N1` (stereo not drawn) [M1040, EDTA-(OC2Y-ATMP)4], the “MTT: ED50 for killing” value came out at 0.73 µM.

Turning to `CC1(C)CC(NC(=O)C(NC(=O)C=Cc2ccc(N)cc2)C2Cc3ccccc3C2)CC(C)(C)N1` (stereo not drawn) [M292], the “MTT: ED50 for killing” value stood at 40 µM.

Turning to `CC1(C)CC(NC(=O)C(Cc2ccc(-c3ccccc3)cc2)NC(=O)C=Cc2cccnc2)CC(C)(C)N1` (stereo not drawn) [M296], the “MTT: ED50 for killing” value came to 15 µM.

As to `CC1(C)CC(NC(=O)[C@@H](NC(=N)CCCCCCCCCCCCC(=O)O)C2Cc3ccccc3C2)CC(C)(C)N1` [M280-1], the “MTT: ED50 for killing” value is 21 µM.

Turning to `CN(C)c1ccc(CNC(=O)C(Cc2ccc(OCc3c(Cl)cccc3Cl)cc2)NC(=O)C=Cc2c(F)c(F)c(F)c(F)c2F)cc1` (stereo not drawn) [M798], the “MTT: ED50 for killing” value stood at 37 µM.

Consider `COC(=O)C(Cc1ccc(OCc2ccccc2)cc1)N(Cc1ccc(N(C)C)cc1)C(=O)C=Cc1c(F)c(F)c(F)c(F)c1F` (stereo not drawn) [M614], for which the “MTT: ED50 for killing” value is 9.1 µM.

As for `CC1(C)CC(NC(=O)C(Cc2csc3ccccc23)NC(=NC2CCCCC2)NC2CCCCC2)CC(C)(C)N1` (stereo not drawn) [M440], the “MTT: ED50 for killing” value worked out at 30 µM.

`CC1(C)CC(NC(=O)C2Cc3ccccc3CN2C(=O)C=Cc2c(F)c(F)c(F)c(F)c2F)CC(C)(C)N1` (stereo not drawn) [M322]: the “MTT: ED50 for killing” value amounted to 7.6 µM.

On to `CC1(C)CC(NC(=O)C(Cc2ccc3ccccc3c2)NC(=O)c2ccc(NC(=N)N)cc2)CC(C)(C)N1` (stereo not drawn) [M306], for which the “MTT: ED50 for killing” value was over 100 µM.

With `CCOC(=O)CN1C(C)(C)CC(NC(=O)C(Cc2ccc3ccccc3c2)NC(=O)C(C2CCCCC2)C2CCCCC2)CC1(C)C` (stereo not drawn) [M572], the “MTT: ED50 for killing” value was 2.6 µM.

Take `CC1(C)CC(NC(=O)C(Cc2ccc(O)cc2)NC(=O)C=Cc2c(F)c(F)c(F)c(F)c2F)CC(C)(C)N1` (stereo not drawn) [M316]: the “MTT: ED50 for killing” value amounted to 50 µM.

On to `O=C(C=Cc1c(F)c(F)c(F)c(F)c1F)NC(Cc1ccc2ccccc2c1)C(=O)NCc1cccnc1` (stereo not drawn) [M466], for which the “MTT: ED50 for killing” value is listed as “Inact”.

Consider `CC1(C)CC(NC(=O)C(Cc2cccc3ccccc23)NC(=O)C(Cc2cnc[nH]2)NC(=O)CCCCCCCCCCC(=O)NC(Cc2cnc[nH]2)C(=O)NC(Cc2cccc3ccccc23)C(=O)NC2CC(C)(C)NC(C)(C)C2)CC(C)(C)N1` (stereo not drawn) [M660], for which the “MTT: ED50 for killing” value amounted to 30 µM.

Staying with this assay, now noted: Table 1; SHP-77, MTT, 4 days.
On to “DArg-Arg-Pro-Hyp-Gly-Igl-Ser-DIgl-Oic-Arg-NH2 [B10062]”, for which the “MTT: ED50 for killing” value was “Inact”.

For the compound Dcg-F5F-Arg [M130], the “MTT: ED50 for killing” value turned out to be 20 µM.

For the compound “DDD-(DArg-Arg-Eac-Ser-DF5F-Oic-Arg)2 [M804]”, the “MTT: ED50 for killing” value stood at 7.3 µM.

Consider α-DDD-(ApC-F5F-Arg)2 [M930], for which the “MTT: ED50 for killing” value is listed as “Inact”.

Turning to DDD-(Eac-Arg-Digl-Oic-Arg)2 [B10198-2], the “MTT: ED50 for killing” value is 15 µM.

Consider Aaa-Pac-hPhe-Arg [M752-6], for which the “MTT: ED50 for killing” value is listed as “Inact”.

For the compound Aaa-Ser-Pac-hPhe-Arg [M752-5], the “MTT: ED50 for killing” value is on record as “Inact”.

With Dcg-hPhe-Arg [M558], the “MTT: ED50 for killing” value is 100 µM.

In the case of F5c-PFF-Arg-NH2 [M812], the “MTT: ED50 for killing” value amounted to 15 µM.

On to “F5bz-DArg-Arg-Aud-Ser-D5F5-Oic-Arg [M958]”, for which the “MTT: ED50 for killing” value was found to be 18 µM.

For “DDD-(DArg-Arg-Aud-Pac-2Nal-DArg-NH2)2 [M710]”, the “MTT: ED50 for killing” value was found to be 1.7 µM.

“Aaa-DArg-Arg-Eac-Ser-D5F5-Oic-Arg [M954]”: the “MTT: ED50 for killing” value turned out to be 10 µM.

In the case of “α-DDD-(K-DArg-Arg-Eac-Ser-DF5F-Oic-Arg)2 [M950]”, the “MTT: ED50 for killing” value was 6.7 µM.

“DDD-(DArg-Arg-Eac-Ser-DF5F-PFF-Arg)2 [M944]”: the “MTT: ED50 for killing” value is 6.7 µM.

In the case of F5c-p-APa-Arg [M216], the “MTT: ED50 for killing” value was over 180 µM.

For the compound Ppa-PFF-Arg [M814], the “MTT: ED50 for killing” value is “Inact”.

“33Dp-DArg-Arg-Aud-Ser-D5F5-Oic-Arg [M964]”: the “MTT: ED50 for killing” value is 4 to 8 µM.

Regarding Pya-hPhe-Arg [M540], the “MTT: ED50 for killing” value is over 100 µM.

Regarding Pac-hPhe-Arg [M752-2], the “MTT: ED50 for killing” value is recorded as “Inact”.

With DArg-Arg-Aud-DIgl-PFF-Arg [M844], the “MTT: ED50 for killing” value is 12 µM.

Consider Cin-hPhe-Arg [M706], for which the “MTT: ED50 for killing” value is given as “Inact”.

As to Dcg-Digl-Oic-Arg [B9490], the “MTT: ED50 for killing” value was over 60 µM.

Take F5bz-F5F-Arg [M132]: the “MTT: ED50 for killing” value stood at 60 µM.

Consider ζ-SUB-(ApC-F5F-Arg)2 [M926], for which the “MTT: ED50 for killing” value was “Inact”.

As to F5c-DArg-hPhe-Arg [M612], the “MTT: ED50 for killing” value is reported as “Inact”.

Take “DDD-(DArg-Arg-Eac-Ser-DIgl-PFF-Arg)2 [M932]”: the “MTT: ED50 for killing” value stood at 6.0 µM.

In the case of “Aca-DArg-Arg-Aud-Ser-D5F5-Oic-Arg [M960]”, the “MTT: ED50 for killing” value worked out at 21 µM.

On to DDD-(DArg-hPhe-Arg-NH2)2 [M560], for which the “MTT: ED50 for killing” value was found to be 50 µM.

For the compound “DDD-(DArg-Arg-Aud-DIgl-hPhe-Arg)2 [M786]”, the “MTT: ED50 for killing” value was 3.2 µM.

Staying with this assay, now noted: Table 3, cyclic peptides.
c[DArg-Arg-Eac-DF5F-Oic-Arg] [M906]: the “MTT: ED50 for killing” value came to 45 µM.

Turning to “α-DDD-(c[Lys-DArg-Arg-Pro-Hyp-Gly-Thi-Ser-DF5F-Oic-Arg])2 [B10312]”, the “MTT: ED50 for killing” value came out at 3.8 µM.

On to “c[Suc-DArg-Arg-Eac-Ser-DIgl-PaF]-Arg [M924]”, for which the “MTT: ED50 for killing” value turned out to be 37 µM.

For c[DArg-Arg-Eac-DIgl-PFF-Arg] [M896], the “MTT: ED50 for killing” value was found to be 65 µM.

In the case of c[DArg-Arg Add-DIgl-PFF-Arg] [M878], the “MTT: ED50 for killing” value was 7 µM.

The subject of a further assay is bradykinin response of isolated guinea pig ileum. Briefly: Anti-bradykinin activity on isolated guinea pig ileum. Conditions: Table 1; higher numbers indicate higher potency. How it is done: as §1
Male Hartley guinea pigs that had been deprived of food overnight were sacrificed, and sections of terminal ileum, 25 mm in length, were dissected, attached to tissue holders and immersed in 10 ml tissue baths containing Krebs' solution bubbled with 95% O2/5% CO2. Tissues were placed under 1 g tension and incubated for 1 h equilibration. Concentration-effect curves were constructed to bradykinin in the absence and presence of new compounds.
Turning to “DArg-Arg-Pro-Hyp-Gly-Igl-Ser-DIgl-Oic-Arg-NH2 [B10062]”, the “GPI: pA2 for bradykinin antagonist activity on isolated guinea pig ileum” value (“GPI: pA2” below) came out at 7.1.

Take Dcg-F5F-Arg [M130]: the “GPI: pA2” value was found to be 4.8.

Consider “DDD-(DArg-Arg-Eac-Ser-DF5F-Oic-Arg)2 [M804]”, for which the “GPI: pA2” value came to 7.7.

Staying with this assay, now noted: isolated guinea pig ileum; pD2 of bradykinin is 7.4; higher numbers indicate higher potency.
For `CC1(C)CC(NC(=O)[C@@H](NC(=N)CCCCCCCCCCCCC(=N)N[C@H](C(=O)NC2CC(C)(C)NC(C)(C)C2)C2Cc3ccccc3C2)C2Cc3ccccc3C2)CC(C)(C)N1` [M280], the “GPI: pA2” value was found to be 5.2.

As for `Cc1cc(NC(=O)C(Cc2ccc3ccccc3c2)NC(=O)C=Cc2c(F)c(F)c(F)c(F)c2F)c2ccccc2n1` (stereo not drawn) [M314], the “GPI: pA2” value stood at 4.6.
